Measurements: patent publication US10351530B2, “Arylcyclohexyl pyrazoles as NRF2 regulators” (GlaxoSmithKline Intellectual Property Development Limited, priority 2015, dated 2019)
Counter-ions that a name gives are not always drawn.

How the values were obtained:
Keap1/NRF2 = target: T1, Keap1/NRF2 (Homo sapiens, UniProt Q14145); experiment: NRF2-Keap1 FP Assay (Kelch domain (321-609) of Keap1, TAMRA-labeled NRF2 ETGE peptide); type: binding; conditions: Keap1 (321-609) 20 nM, Tamra labeled peptide 8 nM
T1 construct: Keap1 (321-609) is diluted to 40 nM (2×) in 1× assay buffer
Excerpt: One model for the NRF2-Keap1 interaction is through two binding sites in the Neh2 domain on NRF2. The two sites are referred to as the DLG binding motif (latch domain, uM affinity) and the ETGE binding motif (hinge domain, nM affinity). The Keap1 protein consists of an N-terminal region (NTR), a broad complex, tramtrack, and brick a′ brac domain (BTB), an intervening region (IVR), a double glycine repeat domain (DGR or Kelch), and a C-terminal region. The DLG and ETGE motifs of NRF2's Neh2 domain bind to the Kelch domain of Keap1 at different affinities. In the Keap1 Kelch fluorescence polarization (FP) assay, a TAMRA-labeled 16 mer peptide (AFFAQLQLDEETGEFL) containing the ETGE motif of NRF2 and the Kelch domain (321-609) of Keap1 is used. The assay determines if a compound interferes with the binding between Keap1 […] and the TAMRA-labeled peptide. Binding of TAMRA-labeled NRF2 peptide to Keap1 (321-609) results in a high FP signal. If a compound interferes with the binding between the peptide and the protein, it will cause the assay signal to decrease. Thus, assay signal is inversely proportional to binding inhibition.
100 nl of 100× compound dose response curves (serial 3-fold dilutions) in DMSO are stamped using an Echo liquid handling system (Labcyte) into 384-well low volume black assay plates (Greiner, #784076), with DMSO in columns 6 and 18. The top concentration of compound is located in columns 1 and 13. Keap1 (321-609) is diluted to 40 nM (2×) in 1× assay buffer (50 mM Tris, pH 8.0, 100 mM NaCl, 5 mM MgCl2, 1 mM DTT, 2 mM CHAPS, and 0.005% BSA) and 5 ul is added using a Multidrop Combi (Thermo Electron Corporation) equipped with a metal tip dispenser to all wells of the compound plate, except column 18. Column 18 receives only 5 ul of assay buffer. Immediately, 5 uL of 16 nM (2×) of Tamra labeled peptide (AFFAQLQLDEETGEFL, 21st Century Biochemicals) is added to all wells of the plate. The plates are spun at 500 rpm for 1 min, incubated for 1 hr at room temperature, and read on an Analyst GT (Molecular Devices) equipped with excitation (530/25 nm) and emission (580/10 nm) filters designed for Tamra probes. A 561 nm dichroic mirror is also used in the Analyst. The final assay concentrations of Keap1 (321-609) and Tamra labeled peptide are 20 nM and 8 nM, respectively. Fluorescence measurements, represented as mP, are used in the transformation of the data. Compound activity is calculated based on percent inhibition, normalized against controls in the assay (Control 1 contains the Tamra peptide and Keap1 (321-609) together (0% response) and control 2 contains the Tamra peptide alone (100% response)). Data analysis is handled using the software package Abase XE (Surrey, United Kingdom. The % inhibition values are calculated by the equation: 100−(100*((compound response-average control 2)/(average control 1−average control 2))). For calculation of pIC50s, Abase XE uses a four parameter equation.

NRF2/Keap1 = target: T2, NRF2/Keap1 (Homo sapiens, UniProt Q14145); experiment: NRF2-Keap1 TR-FRET Low Protein Assay (full length NRF2 and full length Keap1); type: binding; conditions: low protein: 1.25 nM Keap1 FlagHis, 2.5 nM biotin-NRF2 added
T2 construct: full length NRF2 protein and full length Keap1 protein (Keap1 exists a dimer) are used
Excerpt: In the NRF2-Keap1 TR-FRET (time-resolved fluorescence resonance energy transfer) low protein assay, full length NRF2 protein and full length Keap1 protein (Keap1 exists a dimer) are used. The assay detects a compound's ability to displace the binding of Keap1 FlagHis with biotinylated Avi-NRF2 protein. Biotin-NRF2 binds to streptavidin-europium (a component of the detection mix) and Keap1 FlagHis is recognized by anti-Flag APC (allophycocyanin) antibody (also a component of the detection mix). If binding occurs between the two proteins, there will be an energy transfer from the Eu+3 (donor) at 615 nm to the APC (acceptor) at 665 nm. A potential NRF2 inhibitor will cause a reduction in the TR-FRET signal by interfering with the binding of Keap1 to NRF2.
Ten nanoliters of 100× compound dose response curves (serial 3-fold dilutions) in DMSO are stamped using an Echo liquid handling system (Labcyte) into 384-well, low volume, black assay plates (Greiner, #784076), with DMSO in columns 6 and 18. An additional 90 nl DMSO is added to each well, to bring the total volume to 100 nl per well. The top concentration of compound is located in columns 1 and 13, with the serial dilutions going across the row. All reagents are diluted in assay buffer (50 mM Tris, pH 8.0, 5 mM MgCl2, 100 mM NaCl, 0.005% BSA, 1 mM DTT, and 2 mM CHAPS. The BSA, DTT, and CHAPS are added to the assay buffer on the day of assay. Using a Multidrop Combi (Thermo Electron Corporation) equipped with a metal tip dispenser, 5 ul of 1.25 nM Keap1 FlagHis protein is added to all wells of the compound plate, with the exception of the wells in column 18. Wells in column 18 receive 5 ul of assay buffer instead. Plates are centrifuged at 500 rpm for 1 minute, covered with a plate lid, and incubated at 37° C. for 2.25 hours. Plates are then removed from the incubator and allowed to cool to RT for 15 minutes. Five microliters of 2.5 nM biotin-NRF2 protein is then added to all wells of the plates and the plates are spun at 500 rpm for 1 minute, followed by incubating at 4° C. for 1.25 hours. The plates are then allowed to warm to RT for 15 minutes, followed by the addition of 10 ul of detection mix (1 nM Streptavidin Eu+ W1024 and 5 ug/ml mouse anti-DYKDDDDK IgG conjugated to SureLight APC antibody; both from Columbia Biosciences) to all wells. Plates are spun at 500 rpm for 1 minute, incubated for 1 hour at RT, and read on an Envision plate reader using a 320 nm excitation filter and 615 nm and 665 nm emission filters. Compound response (% inhibition) and potency (pIC50) are calculated based on the ratio of the two emissions (665 nm/615 nm) and then the transformed data is normalized against controls in the assay (control 1=1% DMSO in the presence of NRF2 and Keap1 protein and control 2=1% DMSO in the presence of only the NRF2 protein). Data analysis is handled using the software package Abase XE (Surrey, United Kingdom). The % inhibition values are calculated from the ratio (transformed) data by the equation: 100−(100*(compound response-average control 2)/(average control 1−average control 2)). For calculation of pIC50s, Abase XE uses a four parameter equation.

[1] = system: NQO1 specific enzyme activity in BEAS-2B cells; experiment: BEAS-2B NQO1 MTT Assay; type: cell-based; conditions: Homo sapiens, BEAS-2B, 48 h, NQO1 specific activity induction
Excerpt: NAD(P)H:quinone oxidoreductase 1 (NQO1), also called DT diaphorase, is a homodimeric FAD-containing enzyme that catalyzes obligatory NAD(P)H-dependent two-electron reductions of quinones and protects cells against the toxic and neoplastic effects of free radicals and reactive oxygen species arising from one-electron reductions. The transcription of NQO1 is finely regulated by NRF2, and thus NQO1 activity is a good marker for NRF2 activation. On day one, frozen BEAS-2B cells (ATCC) are thawed in a water bath, counted, and re-suspended at a concentration of 250,000 cells/mL. Fifty microliters of cells are plated in 384 well black clear-bottomed plates. Plates are incubated at 37° C., 5% CO2 overnight. On day two, plates are centrifuged and 50 nL of compound or controls are added to the cells. Plates are then incubated at 37° C., 5% CO2 for 48 hours. On day four, medium is aspirated from the plate and crude cell lysates are made by adding 13 uL of 1× Cell Signaling Technologies lysis buffer with 1 Complete, Mini, EDTA-free Protease Inhibitor Tablet (Roche) for each 10 mL of lysis buffer. After lysis plates are incubated for 20 minutes at room temperature. Two microliters of lysate are removed for use in Cell Titer Glo assay (Promega) and MTT cocktail is prepared (Prochaska et. al. 1998) for measurement of NQO1 activity. Fifty microliters of MTT cocktail is added to each well, plate is centrifuged, and analyzed on an Envision plate reader (Perkin Elmer) using Absorbance 570 nm label for 30 minutes. Product formation is measured kinetically and the pEC50 of NQO1 specific activity induction is calculated by plotting the change in absorbance (Delta OD/min) versus the log of compound concentration followed by 3-parameter fitting.

T1 sequence (Q14145 321-609): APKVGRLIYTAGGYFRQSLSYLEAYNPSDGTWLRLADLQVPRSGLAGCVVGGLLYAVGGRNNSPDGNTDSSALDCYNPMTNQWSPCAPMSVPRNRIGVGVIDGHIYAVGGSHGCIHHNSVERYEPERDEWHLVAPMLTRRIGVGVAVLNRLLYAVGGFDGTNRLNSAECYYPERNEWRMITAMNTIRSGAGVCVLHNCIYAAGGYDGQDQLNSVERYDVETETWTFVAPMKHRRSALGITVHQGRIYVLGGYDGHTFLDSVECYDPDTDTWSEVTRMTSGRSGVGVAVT
T2 sequence (Q14145 whole entry): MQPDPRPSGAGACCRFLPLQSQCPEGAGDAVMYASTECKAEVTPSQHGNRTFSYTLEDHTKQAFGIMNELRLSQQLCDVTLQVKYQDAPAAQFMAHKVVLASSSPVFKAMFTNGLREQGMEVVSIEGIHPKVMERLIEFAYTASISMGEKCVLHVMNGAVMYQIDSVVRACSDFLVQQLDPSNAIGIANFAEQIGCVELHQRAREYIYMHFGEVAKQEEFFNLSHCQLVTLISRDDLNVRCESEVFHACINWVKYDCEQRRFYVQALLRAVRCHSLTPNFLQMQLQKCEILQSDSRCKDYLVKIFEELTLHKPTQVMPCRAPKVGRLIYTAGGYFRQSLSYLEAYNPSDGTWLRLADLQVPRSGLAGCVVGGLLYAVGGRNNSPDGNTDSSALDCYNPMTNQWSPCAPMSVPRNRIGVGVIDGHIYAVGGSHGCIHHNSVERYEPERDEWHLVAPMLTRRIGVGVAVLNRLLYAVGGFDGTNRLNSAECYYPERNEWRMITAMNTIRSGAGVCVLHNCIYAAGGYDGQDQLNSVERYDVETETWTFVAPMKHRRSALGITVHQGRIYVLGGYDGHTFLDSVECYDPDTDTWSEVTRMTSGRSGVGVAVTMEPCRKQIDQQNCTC

| IC50 (Keap1/NRF2) [nM] | IC50 (NRF2/Keap1) [nM] | SMILES | EC50 [1] [nM] |
| --- | --- | --- | --- |
| 100 to 1000 | 10 to 100 | Cn1cc([C@@H]2C[C@H]2c2c(C(=O)O)cnn2-c2cccc(N3CCC[C@@H](OCC4CCCCC4)C3)c2)nn1 [Example 43, 1-(3-((R)-3-(Cyclohexylmethoxy)piperidin-1-yl)phenyl)-5-((1R,2R)-2-(1-methyl-1H-1,2,3-triazol-4-yl)cyclopropyl)-1H-pyrazole-4-carboxylic Acid] | 100 to 1000 |
| 100 to 1000 | 10 to 100 | Cn1cc([C@@H]2C[C@H]2c2c(C(=O)O)cnn2-c2cccc(C3CCCN(C(=O)c4ccccc4)C3)c2)nn1 (stereo partly drawn) [Example 33, 1-(3-(1-benzoylpiperidin-3-yl)phenyl)-5-((1R,2R)-2-(1-methyl-1H-1,2,3-triazol-4-yl)cyclopropyl)-1H-pyrazole-4-carboxylic Acid] | 1000 to 10000 |
| 10 to 100 | 10 to 100 | Cn1cc([C@@H]2C[C@H]2c2c(C(=O)O)cnn2-c2cccc(N3CCCC(CCC4CCCCC4)C3)c2)nn1 (stereo partly drawn) [Example 35, 1-(3-(3-(2-cyclohexylethyl)piperidin-1-yl)phenyl)-5-((1R,2R)-2-(1-methyl-1H-1,2,3-triazol-4-yl)cyclopropyl)-1H-pyrazole-4-carboxylic Acid] | 1 to 10 |
| 10 to 100 | 10 to 100 | Cn1cc([C@@H]2C[C@H]2c2c(C(=O)O)cnn2-c2cccc(N3CCC[C@@H](CCC4CCCCC4)C3)c2)nn1 [Example 36d, 1-(3-((R)-3-(2-cyclohexylethyl)piperidin-1-yl)phenyl)-5-((1R,2R)-2-(1-methyl-1H-1,2,3-triazol-4-yl)cyclopropyl)-1H-pyrazole-4-carboxylic Acid] | 1 to 10 |
| 10 to 100 | 10 to 100 | Cn1cc([C@@H]2C[C@H]2c2c(C(=O)O)cnn2-c2cccc(C3CCCN(C(=O)C(C)(C)C)C3)c2)nn1 (stereo partly drawn) [Example 32, 5-((1R,2R)-2-(1-methyl-1H-1,2,3-triazol-4-yl)cyclopropyl)-1-(3-(1-pivaloylpiperidin-3-yl)phenyl)-1H-pyrazole-4-carboxylic Acid] | 100 to 1000 |
| > 10000 | 1000 to 10000 | O=C(O)c1cnn(-c2cccc(C3CCCN(CC4CCCCC4)C3)c2)c1C1CC1 (stereo not drawn) [Example 28, 1-(3-(1-(cyclohexylmethyl)piperidin-3-yl)phenyl)-5-cyclopropyl-1H-pyrazole-4-carboxylic Acid, Hydrochloride] | 1000 to 10000 |
| 10 to 100 | 10 to 100 | Cn1cc([C@@H]2C[C@H]2c2c(C(=O)O)cnn2-c2cccc(N3CCC[C@H](CCC4CCCCC4)C3)c2)nn1 [Example 36c, 1-(3-((S)-3-(2-Cyclohexylethyl)piperidin-1-yl)phenyl)-5-((1R,2R)-2-(1-methyl-1H-1,2,3-triazol-4-yl)cyclopropyl)-1H-pyrazole-4-carboxylic Acid] | 10 to 100 |
| 100 to 1000 | 10 to 100 | Cn1cc([C@@H]2C[C@H]2c2c(C(=O)O)cnn2-c2cccc(C3CCCN(C(=O)CC4CCCCC4)C3)c2)nn1 (stereo partly drawn) [Example 31, 1-(3-(1-(2-cyclohexylacetyl)piperidin-3-yl)phenyl)-5-((1R,2R)-2-(1-methyl-1H-1,2,3-triazol-4-yl)cyclopropyl)-1H-pyrazole-4-carboxylic Acid] | 100 to 1000 |

| SMILES | IC50 (Keap1/NRF2) [nM] | IC50 (NRF2/Keap1) [nM] | EC50 [1] [nM] |
| --- | --- | --- | --- |
| Cn1cc([C@@H]2C[C@H]2c2c(C(=O)O)cnn2-c2cccc(C3CCCN(C(=O)OC(C)(C)C)C3)c2)nn1 (stereo partly drawn) [Example 26, 1-(3-(1-(tert-butoxycarbonyl)piperidin-3-yl)phenyl)-5-((1R,2R)-2-(1-methyl-1H-1,2,3-triazol-4-yl)cyclopropyl)-1H-pyrazole-4-carboxylic Acid] | 10 to 100 | 10 to 100 | 1000 to 10000 |
| CC(C)(C)OC(=O)N1CCCC(c2cccc(-n3ncc(C(=O)O)c3C3CC3)c2)C1 (stereo not drawn) [Example 27, 1-(3-(1-(tert-Butoxycarbonyl)piperidin-3-yl)phenyl)-5-cyclopropyl-1H-pyrazole-4-carboxylic Acid] | > 10000 | 1000 to 10000 | 1000 to 10000 |
